In patent publication US20260325605A1, “INHIBITORS” (Zealand Pharma A/S, priority 2022, published 2026):

How the values were obtained:
[1] = target: T1, Kv1.3 (Homo sapiens, UniProt P22001); assay: Patch clamp assay (QPatch), Kv1.3; type: cell-based; details: CHO cells stably expressing human Kv1.3, read-out: Potency IC50, Kv1.3
T1 construct: expressed in transfected cells
Protocol: (§1) Selectivity of Kv1.3 inhibitor peptides for Kv1.3 over other potassium ion channels (Kv1.1, Kv1.2 and Kv1.6) was determined using patch clamp assay.
(§2) Chinese Hamster Ovary (CHO) cell lines stably expressing exogenous human α-subunits of each potassium ion channel were grown and passaged under standard culture conditions.
(§3) The automated, chip-based planar patch clamp device QPatch® was used to quantitate the ionic currents. All recordings were made in the conventional whole-cell configuration after establishment of gigaohm seals. […] During experiments 0.1% (v/v) BSA was included as a vehicle in all external recording solutions. Currents were elicited from a holding potential of −80 mV using a voltage protocol, which shifted the voltage to 30 mV for 500 ms every 15 s.
(§4) Concentration-response relationships were established by cumulatively applying seven escalating concentrations of test sample to an individual cell with a recording period of 2 min per compound application.
(§5) The efficacy was determined as the mean charge for the last three sweeps at the end of each concentration application period from the cursor positions. The percent inhibition for each test dose application period was calculated as the reduction in mean cursor value (charge) relative to the cursor value measured at the end of the vehicle period and used to calculate the IC50 from the concentration response curve.

[2] = target: T2, Kv1.1 (Homo sapiens, UniProt Q09470); assay: Patch clamp assay (QPatch), Kv1.1; type: cell-based; details: for IC50: QPatch, CHO cells stably expressing human Kv1.1, read-out: Potency IC50, Kv1.1; for Selectivity Kv1.1/Kv1.3: ratio of IC50 Kv1.1/Kv1.3
T2 construct: expressed in transfected cells

[3] = target: T3, Kv1.2 (Homo sapiens, UniProt P16389); assay: Patch clamp assay (QPatch), Kv1.2; type: cell-based; details: for IC50: QPatch, CHO cells stably expressing human Kv1.2, read-out: Potency IC50, Kv1.2; for Selectivity Kv1.2/Kv1.3: ratio of IC50 Kv1.2/Kv1.3
T3 construct: expressed in transfected cells
Protocol: as §1, §2, §3, §4, §5

[4] = target: T4, Kv1.6 (Homo sapiens, UniProt P17658); assay: Patch clamp assay (QPatch), Kv1.6; type: cell-based; details: for IC50: QPatch, CHO cells stably expressing human Kv1.6, read-out: Potency IC50, Kv1.6; for Selectivity Kv1.6/Kv1.3: ratio of IC50 Kv1.6/Kv1.3
T4 construct: expressed in transfected cells

[5] = test system: T-cell activation in rat whole blood; assay: Example 4: IL-17A release in thapsigargin stimulated rat whole blood; type: cell-based, rat (Lewis or Sprague-Dawley); details: 24 Hr, at least 2 replicates, unit inferred, read-out: IC50 (inhibition of IL-17A release)
In short: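 Heparinised whole blood from naïve Lewis or Sprague-Dawley rats preincubated ≥5 min at RT with peptide, then stimulated with thapsigargin (40 μM stock added as one quarter of well volume) for 24 h at 37 °C. Supernatant IL-17A measured by ELISA; IC50 from curves normalised to stimulated and unstimulated controls, ≥2 replicates.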

T4 sequence (P17658 whole entry): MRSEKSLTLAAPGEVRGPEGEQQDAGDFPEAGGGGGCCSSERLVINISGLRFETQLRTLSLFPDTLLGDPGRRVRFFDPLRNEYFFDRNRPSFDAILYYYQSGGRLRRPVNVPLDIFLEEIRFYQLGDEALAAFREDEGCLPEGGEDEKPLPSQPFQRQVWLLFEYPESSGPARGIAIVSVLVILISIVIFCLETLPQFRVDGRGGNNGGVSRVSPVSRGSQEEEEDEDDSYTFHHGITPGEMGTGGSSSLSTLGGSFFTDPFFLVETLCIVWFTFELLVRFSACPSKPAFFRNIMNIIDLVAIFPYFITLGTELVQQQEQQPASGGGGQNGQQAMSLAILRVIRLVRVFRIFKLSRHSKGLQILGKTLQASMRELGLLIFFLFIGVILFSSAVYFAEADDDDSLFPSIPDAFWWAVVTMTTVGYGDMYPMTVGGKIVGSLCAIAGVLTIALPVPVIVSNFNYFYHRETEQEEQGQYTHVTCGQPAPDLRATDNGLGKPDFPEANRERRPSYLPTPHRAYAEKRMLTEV
T2 sequence (Q09470 whole entry): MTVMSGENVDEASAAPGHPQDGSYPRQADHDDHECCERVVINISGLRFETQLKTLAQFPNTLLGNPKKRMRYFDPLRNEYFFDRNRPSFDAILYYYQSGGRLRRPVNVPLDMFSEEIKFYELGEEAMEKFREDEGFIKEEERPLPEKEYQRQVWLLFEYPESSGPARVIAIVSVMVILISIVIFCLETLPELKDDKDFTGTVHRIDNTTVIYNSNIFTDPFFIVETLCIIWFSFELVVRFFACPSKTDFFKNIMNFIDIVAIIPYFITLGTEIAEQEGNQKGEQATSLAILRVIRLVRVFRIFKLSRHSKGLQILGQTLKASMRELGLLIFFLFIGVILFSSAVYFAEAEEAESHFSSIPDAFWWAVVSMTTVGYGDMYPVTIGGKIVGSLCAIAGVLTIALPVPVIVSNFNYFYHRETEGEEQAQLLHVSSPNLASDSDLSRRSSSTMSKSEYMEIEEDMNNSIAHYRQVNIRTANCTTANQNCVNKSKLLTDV
T1 sequence (P22001 whole entry): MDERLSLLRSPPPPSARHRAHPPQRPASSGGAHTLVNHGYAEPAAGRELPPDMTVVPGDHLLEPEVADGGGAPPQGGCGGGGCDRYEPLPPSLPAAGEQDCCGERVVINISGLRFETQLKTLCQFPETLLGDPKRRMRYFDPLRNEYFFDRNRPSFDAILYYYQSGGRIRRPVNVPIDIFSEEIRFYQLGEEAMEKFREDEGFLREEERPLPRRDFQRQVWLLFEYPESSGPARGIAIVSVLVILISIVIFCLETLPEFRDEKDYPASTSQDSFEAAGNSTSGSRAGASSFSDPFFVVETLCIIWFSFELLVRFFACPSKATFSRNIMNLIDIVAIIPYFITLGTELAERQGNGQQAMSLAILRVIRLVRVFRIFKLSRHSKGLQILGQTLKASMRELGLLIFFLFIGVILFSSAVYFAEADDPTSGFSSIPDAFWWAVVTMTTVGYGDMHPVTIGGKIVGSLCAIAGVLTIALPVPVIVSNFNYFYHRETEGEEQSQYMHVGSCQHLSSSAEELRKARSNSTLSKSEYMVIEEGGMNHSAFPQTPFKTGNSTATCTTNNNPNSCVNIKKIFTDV
T3 sequence (P16389 whole entry): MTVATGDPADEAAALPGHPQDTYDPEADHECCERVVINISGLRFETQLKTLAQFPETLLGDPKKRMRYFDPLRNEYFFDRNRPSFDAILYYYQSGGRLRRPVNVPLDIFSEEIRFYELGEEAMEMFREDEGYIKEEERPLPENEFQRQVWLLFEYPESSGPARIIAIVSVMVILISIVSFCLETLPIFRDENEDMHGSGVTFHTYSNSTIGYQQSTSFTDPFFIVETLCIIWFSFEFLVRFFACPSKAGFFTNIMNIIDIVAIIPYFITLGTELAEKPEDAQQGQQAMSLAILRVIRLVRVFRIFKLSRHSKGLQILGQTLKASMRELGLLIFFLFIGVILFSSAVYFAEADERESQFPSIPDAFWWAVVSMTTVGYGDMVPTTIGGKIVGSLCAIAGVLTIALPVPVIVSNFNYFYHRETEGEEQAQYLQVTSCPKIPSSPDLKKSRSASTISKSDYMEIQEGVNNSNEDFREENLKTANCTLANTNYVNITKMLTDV

Substance | IC50 [1] [nM] | IC50 [2] [nM] | Selectivity Kv1.1/Kv1.3 [2] | IC50 [3] [nM] | Selectivity Kv1.2/Kv1.3 [3] | IC50 [4] [nM] | Selectivity Kv1.6/Kv1.3 [4] | IC50 [5] [nM]
Ac-LRC(1)SASVEC(2)KQKC(3)LKAIGSIFGKC(1)[Nle]NKKC(2)KC(3)YPR-NH2 [Peptide 114] | 0.35 | > 3000 | >8700 | 122 | 352 | 2460 | 7096 | 0.37
H-PIE[Nle]RC(1)SASVEC(2)KQKC(3)LKAIGSIFGKC(1)[Nle]NKKC(2)KC(3)YPR-OH [Peptide 99] | 0.39 | > 3000 | >7800 | 1760 | 4561 | > 3000 | >7800 | 1.8
H-P[Nle]D[Nle]RC(1)SASVEC(2)KQKC(3)LKAIGC(4)IFGKC(1)[Nle]NKKC(2)KC(3)YPC(4)-NH2 [Peptide 85] | 0.63 | > 3000 | >4800 | 624 | 995 | 1220 | 1949 | 0.81
H-NMDMRC(1)SASVEC(2)KQLC(3)LKAIGSIFGKC(1)MNKKC(2)KC(3)YPR-NH2 [Peptide 19] | 0.24 | > 3000 | >12700 | 256 | 1080 | > 3000 | >12700 | 3.2
H-N[Nle]D[Nle]RC(1)SASVEC(2)KQKC(3)LKAIGSPFGKC(1)[Nle]NKKC(2)KC(3)YPR-NH2 [Peptide 63] | 0.26 | > 3000 | >11600 | 449 | 1740 | 2350 | 9102 | 0.44
H-N[Nle]D[Nle]RC(1)SASVEC(2)KKKC(3)LKAIGSIFGKC(1)[Nle]NKKC(2)KC(3)YPR-NH2 [Peptide 46] | 0.75 | > 3000 | >4000 | 257 | 343 | > 3000 | >4000 | 1.4
H-S[Nle]D[Nle]RC(1)SASVEC(2)KQKC(3)LKAIGSIFGKC(1)MNKKC(2)KC(3)[F(4-NH2)]PR-NH2 [Peptide 72] | 0.25 | > 3000 | >12200 | 423 | 1720 | > 3000 | >12200 | 0.79
H-NMDMRC(1)SASVEC(2)KQKC(3)KKAIGSIFGKC(1)MNKKC(2)KC(3)YPR-NH2 [Peptide 20] | 0.22 | > 3000 | >13500 | 45 | 202 | 435 | 1955 | 0.56
H-N[Nle]D[Nle]RC(1)RASVEC(2)KQKC(3)LKAIGSIFGKC(1)[Nle]NKKC(2)KC(3)YPR-NH2 [Peptide 43] | 0.16 | > 3000 | >18600 | 109 | 674 | 316 | 1954 | 0.91
H-C(1)SASVEC(2)KQKC(3)LKAIGSIFGKC(1)MNKKC(2)KC(3)YPR-OH [Peptide 124] | 2.09 | > 3000 | >1400 | 1830 | 878 | > 3000 | >1400 | 1.9
